Measurements from patent US8785380B2 (priority 2011, dated 2014).

Assays:
[1] = In vitro release of curcumin at pH 6.8 and pH 1.2, 37 °C; format: physicochemical; conditions: for Cumulative percent of release of curcumin: 37 °C, after 24 hour
Description: Each data point is an average of 3 measurements (n=3) performed under identical conditions. […] Studies were performed in triplicate and mean cumulative percentage of released curcumin was calculated and plotted against time. […] This could be attributed to the very slow initial swelling of polysaccharide chains in water and its further dissolution to allow the leaching of entrapped curcumin into the solution in the dissolution flask.

[2] = male, Wistar albino, rat, in vivo, po, 250 mg/kg
Description: Concentration was determined by HPLC/PDA detection.
[…] blood was collected after each time point, ca. 0, 0.5, 1, 3, 5, 10 and 24 hours respectively into heparinized tubes and centrifuged at 6000×g for 15 minutes. Plasma was decanted and stored at −80° C. until analysis. […] Briefly, 1 mL of plasma was extracted with 3×10 mL of ethyl acetate and is dried over anhydrous sodium sulphate and evaporated to dryness. The residue was then made up to 10 mL with methanol and 20 μL was injected to Shimadzu model LC-20 AT HPLC fitted with a PDA detector model M20A using a reverse phase C18 column (Phenomenex 250×4.6 mm, 5μ) and methanol mobile phase monitored at 420 nm.
Curcuminoid retention time was confirmed by repeated 10 analyses at 50 mg level on same column under identical conditions. […] Analysis was performed by incorporating a Waters Alliance LC fitted with Waters 3100 ESI mass detector.

[3] = human, in vivo, po
Description: The enhancement of bioavailability was also tested on human volunteers of age group between 25 to 50, who were healthy and not involved in any medication or health supplementation. The volunteers were not allowed to take turmeric-containing food for two days prior to the test.
6 mL blood of each volunteer was withdrawn at 0, 0.5, 1, 3, 5, 8 and 24 hours respectively and plasma samples were deep-frozen at −80° C. till analysis.

curcumin dissolved ([1]; after 24 hours): around 0.4%
Cumulative percent of release of curcumin ([1]; pH 1.2 0.1M HCl): 0.06%
Cumulative percent of release of curcumin ([1]; pH 6.8 phosphate buffer): 0.08%
Tmax (time taken to reach maximum concentration in plasma) [2]: 3 h
time of maximum absorption of curcuminoids in the plasma [3]: around 30 min
Compound: COc1cc(/C=C/C(=O)CC(=O)/C=C/c2ccc(O)c(OC)c2)ccc1O [unformulated curcumin, curcumin]
